Assay results: PubChem BioAssay (NCI)
Several values for one entry are separate records, joined by “and”; a condition that tells them apart may be missing. Equal values may be shown once.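 Briefly, cells in 96-well plates were exposed to five compound concentrations for 48 h, and endpoints were estimated by linear interpolation. Abbreviation: GI50, concentration required for 50% inhibition of growth. At the TGI there is no net growth.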

Experiments:
Assay in all cases: NCI anticancer screen, dose series, 48 h
[1] = tested on: CAKI-1 renal
[2] = tested on: EKVX NSCLC
[3] = tested on: HT29 colon
[4] = tested on: MCF7 breast
[5] = tested on: NCI-H522 lung
[6] = tested on: NCI/ADR-RES ovarian
[7] = tested on: OVCAR-4 ovarian
[8] = tested on: SF-268 CNS
[9] = tested on: SK-MEL-2 melanoma
[10] = tested on: SNB-75 CNS

SMILES: O=C(Nc1cccc(-n2ccc3c(NC(=O)c4ccccc4)nccc32)c1)c1ccc(N2CCOCC2)c(C(F)(F)F)c1
- GI50 [1]: 0.0462 µM
- TGI [1]: 14.8 µM
- GI50 [2]: 0.212 µM
- TGI [2]: > 100 µM
- GI50 [3]: 0.038 µM
- GI50 [4]: 0.0397 µM
- TGI [4]: > 73.5 µM
- GI50 [5]: 0.0319 µM
- TGI [5]: 0.545 µM
- GI50 [6]: 0.0352 µM
- TGI [6]: > 51.4 µM
- GI50 [7]: 0.168 µM
- TGI [7]: > 70.7 µM
- GI50 [8]: 0.0625 µM
- TGI [8]: > 100 µM
- GI50 [9]: 0.253 µM
- TGI [9]: 20.1 µM
- GI50 [10]: 0.023 µM
- TGI [10]: 25.9 µM

SMILES: CCOc1ccc2nc(-c3ccc(O)cc3)sc2c1
- TGI [1]: > 100 µM
- TGI [2]: 55.2 µM
- TGI [3]: > 100 µM
- TGI [4]: > 100 µM
- TGI [5]: 89.7 µM
- TGI [6]: > 100 µM
- TGI [8]: 91.3 µM
- TGI [9]: > 100 µM

SMILES: CC[C@]1(O)C[C@H]2CN(CCc3c([nH]c4ccccc34)[C@@](C(=O)OC)(c3cc4c(cc3OC)N(C=O)[C@H]3[C@@](O)(C(=O)OC)[C@H](OC(C)=O)[C@]5(CC)C=CCN6CC[C@]43[C@@H]65)C2)C1
- GI50 [1]: 1.95 µM
- TGI [1]: 9.22 µM and 10.8 µM and 77.2 µM
- TGI [3]: 27.2 µM
- GI50 [5]: 0.00705 µM
- TGI [5]: 0.226 µM and 0.143 µM
- GI50 [6]: 1.18 µM and 0.536 µM and 1.95 µM
- TGI [6]: 4.87 µM and 12.5 µM and 8.04 µM
- TGI [7]: 132 µM and 135 µM
- TGI [8]: 8.13 µM and 31.2 µM and 79.2 µM

SMILES: O=C1OC(c2ccccc2)=N/C1=C\c1cccnc1
- TGI [2]: > 100 µM
- TGI [3]: > 100 µM
- TGI [4]: > 100 µM
- TGI [5]: > 100 µM
- TGI [6]: > 100 µM
- TGI [7]: > 100 µM
- TGI [8]: > 100 µM
- TGI [9]: > 100 µM
- TGI [10]: > 100 µM

SMILES: COC1=C2CC(C)CC(OC)C(O)C(C)/C=C(\C)C(OC(N)=O)C(OC)/C=C\C=C(/C)C(=O)NC(=C(C=NC(C)(C)C)C1=O)C2=O (centres undefined)
- TGI [1]: 23.7 µM
- TGI [2]: 26 µM
- TGI [3]: 21 µM
- TGI [4]: 35.7 µM
- TGI [5]: 1.63 µM
- TGI [6]: 44.4 µM
- TGI [7]: 14.4 µM
- TGI [8]: 37.4 µM
- TGI [9]: 12.3 µM
- TGI [10]: 6.15 µM

SMILES: CC(=O)OC1C(C)OC(Oc2c(C)c3c4c(c2O)[C@@H](C)CC[C@@H]4[C@@H](C)C[C@H]3C=C(C)C)C(O)C1O (some centres undefined)
- GI50 [1]: 1.87 µM
- TGI [1]: 3.74 µM
- GI50 [4]: 5.81 µM
- TGI [4]: > 100 µM
- GI50 [5]: 49.7 µM
- TGI [5]: > 100 µM
- GI50 [6]: 2.96 µM
- TGI [6]: 9.13 µM
- GI50 [7]: 3.2 µM
- TGI [7]: > 100 µM
- GI50 [8]: 16 µM
- TGI [8]: 55.3 µM
- GI50 [9]: > 100 µM
- TGI [9]: > 100 µM

SMILES: CS(=O)(=O)c1ccc(/C=N/NC(N)=S)cc1
- TGI [1]: > 100 µM
- TGI [2]: > 100 µM
- TGI [3]: > 100 µM
- TGI [4]: > 100 µM
- TGI [5]: > 100 µM
- TGI [6]: > 100 µM
- TGI [7]: > 100 µM
- TGI [8]: > 100 µM
- TGI [10]: > 100 µM

SMILES: Nc1ncnc2c1ncn2C1OC(COP(=O)(O)O)C(O)C1O (centres undefined)
- TGI [1]: > 50 µM
- TGI [2]: > 50 µM
- TGI [3]: > 50 µM
- TGI [4]: > 50 µM
- TGI [5]: > 50 µM
- TGI [6]: > 32.2 µM
- TGI [7]: > 50 µM
- TGI [8]: > 50 µM
- TGI [9]: > 50 µM
- TGI [10]: > 50 µM

SMILES: Fc1ccc2[nH]cc(-c3nc(-c4c[nH]c5ncccc45)cs3)c2c1
- GI50 [2]: 3.34 µM
- TGI [2]: > 100 µM
- GI50 [4]: 3.04 µM
- TGI [4]: > 100 µM
- GI50 [9]: > 100 µM
- TGI [9]: > 100 µM
- GI50 [10]: 1.58 µM
- TGI [10]: > 100 µM

SMILES: C/C(CC/C(C)=N/O)=N\O
- TGI [1]: > 100 µM
- TGI [2]: > 100 µM
- TGI [3]: > 100 µM
- TGI [4]: > 100 µM
- TGI [5]: > 100 µM
- TGI [6]: > 100 µM
- TGI [7]: > 100 µM
- TGI [8]: > 100 µM
- TGI [9]: > 100 µM
- TGI [10]: > 100 µM

SMILES: N/C(=N\N=C/c1ccccc1O)NO
- TGI [1]: 24 µM
- TGI [2]: 71.4 µM
- TGI [3]: > 42 µM
- TGI [4]: 26.5 µM
- TGI [5]: 29.8 µM
- TGI [6]: 44.2 µM
- TGI [7]: 31.1 µM
- TGI [8]: 90.5 µM
- TGI [9]: > 90.8 µM
- TGI [10]: > 29.9 µM

SMILES: O=C(O)c1cc2ccccc2c(N=Nc2ccccc2)c1O
- TGI [1]: 84.2 µM
- TGI [2]: 96.6 µM
- TGI [3]: 54.8 µM
- TGI [5]: 59.6 µM
- TGI [6]: 90.4 µM
- TGI [7]: > 100 µM
- TGI [8]: > 100 µM
- TGI [10]: 36 µM
